{
  "source": "patent US20010041724A1",
  "about": "“METHOD FOR THE CONTROL OF FLEA BEETLES IN CANOLA” (priority 1998, published 2001)",
  "key": {"[1]": {"system": "Phyllotreta spp. (flea beetles)", "assay": "Canola seed treatment, shot-hole damage assessment post-emergence", "assay_type": "in vivo", "conditions": "4, 7, 10 and 14 days post-emergence", "procedure": "Acetamiprid is applied to canola seed at rates of 7.5, 10, and 12.5 grams of active ingredient per kg of seed. Imidacloprid is applied to canola seed at rate of 15 g/kg of seed. The seed is planted and allowed to grow. At 4, 7, 10 and 14 days post-emergence of the plant, damage is assessed for the plants by looking for shot-hole damage."}, "canola": {"system": "canola", "assay": "Canola seed treatment, yield at end of growing season", "assay_type": "in vivo", "conditions": "canola seed treated with acetamiprid; end of the growing season"}},
  "data": [
    {"smiles": "C/C(=N\\C#N)N(C)Cc1ccc(Cl)nc1", "note": "[acetamiprid, (E)-N^1-[(6-chloro-3-pyridyl)methyl]-N^2-cyano-N^1-methylacetamidine]", "values": [
      {"measurement": "control of shot-hole damage relative to imidacloprid", "setting": "[1]; acetamiprid 7.5, 10 and 12.5 g a.i./kg canola seed vs imidacloprid 15 g/kg seed", "result": "substantially more control than imidacloprid"},
      {"measurement": "control of shot-hole damage relative to two stage lindane+terbufos treatment", "setting": "[1]; acetamiprid 7.5, 10 and 12.5 g a.i./kg canola seed", "result": "generally equivalent to the two stage lindane+terbufos treatment"},
      {"measurement": "yield of plants grown from treated seed", "setting": "canola", "result": "general yield increase"}
    ]}
  ]
}
